Data from patent US20200331904A1, “3-AMINO-[1,2,4]-TRIAZOLE DERIVATIVES AND THEIR USE FOR CONTROLLING UNDESIRED PLANT GROWTH” (Bayer CropScience Aktiengesellschaft, priority 2017, published 2020).

Assays:
Format in all cases: in vivo
Viola tricolor [1] = experiment: Post-emergence herbicidal efficacy, VIOTR
Description: (§1) ABUTH: Abutilon theophrasti ALOMY: Alopecurus myosuroides AMARE: Amaranthus retroflexus AVEFA: Avena fatua CYPES: Cyperus esculentus ECHCG: Echinochloa crus-galli LOLMU: Lolium multiflorum MATIN: Matricaria inodora PHBPU: Ipomoea purpurea POLCO: Polygonum convolvulus SETVI: Setaria viridis STEME: Stellaria media VERPE: Veronica persica VTOTR: Viola tricolor
(§2) C.2 Post-Emergence Herbicidal Action and Crop Plant Compatibility
(§3) Seeds of monocotyledonous and dicotyledonous weeds and crop plants are placed in sandy loam in plastic or organic planting pots, covered with soil and cultivated in a greenhouse under controlled growth conditions. 2 to 3 weeks after sowing, the test plants are treated at the one-leaf stage. The compounds of the invention, formulated in the form of wettable powders (WP) or as emulsion concentrates (EC), are then sprayed onto the green parts of the plants as aqueous suspension or emulsion with addition of 0.5% additive at a water application rate of […] (converted). After the test plants had been kept in the greenhouse under optimum growth conditions for about 3 weeks, the activity of the preparations is rated visually in comparison to untreated controls. For example, 100% activity=the plants have died, 0% activity=like control plants.

Viola tricolor [2] = experiment: Pre-emergence herbicidal efficacy, VIOTR; details: scored visually after about 3 weeks vs untreated controls
Summary of the method: (§4)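 Seeds were sown in pots and covered with soil; WP or EC formulations were sprayed onto the soil surface as aqueous suspension or emulsion with 0.5% additive. Pots were kept in a greenhouse, and after about 3 weeks damage was rated visually as percent versus untreated controls (100% = plants dead, 0% = like control).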

Abutilon theophrasti = experiment: Pre-emergence herbicidal efficacy, ABUTH; details: Table B1, application rate 320 g/ha, scored visually after about 3 weeks vs untreated controls
Summary of the method: as §4

Lolium rigidum = experiment: Pre-emergence herbicidal efficacy, LOLRI; details: Table B1, application rate 320 g/ha, scored visually after about 3 weeks vs untreated controls
Description: C.1 Pre-Emergence Herbicidal Action and Crop Plant Compatibility Seeds of monocotyledonous and dicotyledonous weed plants and crop plants are placed in plastic or organic planting pots and covered with soil. The compounds of the invention, formulated in the form of wettable powders (WP) or as emulsion concentrates (EC), are then applied onto the surface of the covering soil as aqueous suspension or emulsion with addition of 0.5% additive at a water application rate of […] (converted). After the treatment, the pots are placed in a greenhouse and kept under good growth conditions for the trial plants. After about 3 weeks, the effect of the preparations is scored visually in comparison with untreated controls as percentages. For example, 100% activity=the plants have died, 0% activity=like control plants. […] Here, for example, compound Nos. I-214 and I-196, when applied pre-emergence, have very good activity (80% to 100% herbicidal activity) against harmful plants such as Abutilon theophrasti, Amaranthus retroflexus, Echinochloa crus-galli, Lolium rigidum, Matricaria inodora, Polygonum convolvulus, Setaria viridis, Stellaria media, Veronica persica and Viola tricolor at an application rate of 0.32 kg of active substance or less per hectare. At the same time, some of the compounds according to the invention leave Gramineae crops such as barley, wheat, rye, millet/sorghum, corn, rice or sugar cane virtually undamaged when applied pre-emergence, even at high active compound dosages. In addition, some substances are also harmless to dicotyledonous crops such as soya, cotton, oilseed rape or sugar beet.

Veronica persica [3] = experiment: Pre-emergence herbicidal efficacy, VERPE; details: scored visually after about 3 weeks vs untreated controls
Summary of the method: as §4

Veronica persica [4] = experiment: Post-emergence herbicidal efficacy, VERPE
Description: as §1, §2, §3

Matricaria inodora = experiment: Pre-emergence herbicidal efficacy, MATIN; details: scored visually after about 3 weeks vs untreated controls
Summary of the method: as §4

Amaranthus retroflexus = experiment: Pre-emergence herbicidal efficacy, AMARE; details: scored visually after about 3 weeks vs untreated controls
Summary of the method: as §4

Polygonum convolvulus = experiment: Pre-emergence herbicidal efficacy, POLCO; details: scored visually after about 3 weeks vs untreated controls
Summary of the method: as §4

Stellaria media = experiment: Pre-emergence herbicidal efficacy, STEME; details: scored visually after about 3 weeks vs untreated controls
Summary of the method: as §4

Echinochloa crus-galli = experiment: Pre-emergence herbicidal efficacy, ECHCG; details: Table B1, application rate 320 g/ha, scored visually after about 3 weeks vs untreated controls
Summary of the method: as §4

Setaria viridis = experiment: Pre-emergence herbicidal efficacy, SETVI; details: Table B1, application rate 320 g/ha, scored visually after about 3 weeks vs untreated controls
Summary of the method: as §4

[5] = application rate 320 g/ha, rated visually after about 3 weeks (Table B7)
[6] = Table B1, application rate 320 g/ha
[7] = Table B2, application rate 320 g/ha
[8] = application rate 1280 g/ha, rated visually after about 3 weeks

Row | SMILES | Herbicidal efficacy against VIOTR (Viola tricolor [1]; [5]) [%] | Herbicidal efficacy against VIOTR (Viola tricolor [2]; [6]) [%] | Herbicidal efficacy against ABUTH (Abutilon theophrasti) [%] | Herbicidal efficacy against LOLRI (Lolium rigidum) [%] | Herbicidal efficacy against VERPE (Veronica persica [3]; [6]) [%] | Herbicidal efficacy against VERPE (Veronica persica [4]; [5]) [%] | Herbicidal efficacy against MATIN (Matricaria inodora; [6]) [%] | Herbicidal efficacy against AMARE (Amaranthus retroflexus; [6]) [%] | Herbicidal efficacy against POLCO (Polygonum convolvulus; [6]) [%] | Herbicidal efficacy against STEME (Stellaria media; [6]) [%] | Herbicidal efficacy against ECHCG (Echinochloa crus-galli) [%] | Herbicidal efficacy against SETVI (Setaria viridis) [%] | Herbicidal efficacy against VIOTR (Viola tricolor [2]; [7]) [%] | Herbicidal efficacy against VERPE (Veronica persica [3]; [7]) [%] | Herbicidal efficacy against MATIN (Matricaria inodora; [7]) [%] | Herbicidal efficacy against AMARE (Amaranthus retroflexus; [7]) [%] | Herbicidal efficacy against POLCO (Polygonum convolvulus; [7]) [%] | Herbicidal efficacy against STEME (Stellaria media; [7]) [%] | Herbicidal efficacy against VIOTR (Viola tricolor [1]; [8]) [%] | Herbicidal efficacy against VERPE (Veronica persica [4]; [8]) [%]
1 | CC(=O)N1CCn2nc(N[C@@H]3CCCc4ccccc43)nc2C1 [Example I-163] | 80 | 100 | 100 | 80 | 100 | 90 | 100 | 100 | 100 | 100 | 100 | 100 | – | – | – | – | – | – | – | –
2 | CC(=O)N1CCn2nc(NC3c4cc(C)ccc4CC3C)nc2C1 (stereo not shown) [Example I-165] | 80 | 100 | 100 | 100 | 100 | 90 | 100 | 100 | 100 | 100 | 100 | 100 | – | – | – | – | – | – | – | –
3 | CC(=O)N1CCn2nc(N[C@@H]3CCc4ccc(C)cc43)nc2C1 [Example I-173] | 80 | 100 | 100 | 100 | 100 | 90 | 100 | 100 | 100 | 100 | 100 | 100 | – | – | – | – | – | – | – | –
4 | Cc1ccc2c(c1)[C@H](Nc1nc3n(n1)CCN(S(C)(=O)=O)C3)[C@@H](C)C2 [Example I-190] | 80 | 100 | 100 | 100 | 100 | 80 | 100 | 100 | 100 | 100 | 100 | 100 | – | – | – | – | – | – | – | –
5 | Cc1ccc2c(c1)[C@H](Nc1nc3n(n1)CCN(S(=O)(=O)C1CC1)C3)[C@@H](C)C2 [Example I-192] | 80 | – | – | – | – | 80 | – | – | – | – | – | – | 100 | 100 | 100 | 100 | 100 | 100 | – | –
6 | Cc1ccc2c(c1)[C@H](Nc1nc3n(n1)CCN(S(C)(=O)=O)C3)CCC2 [Example I-198] | 80 | 100 | 100 | 100 | 100 | 90 | 100 | 100 | 100 | 100 | 90 | 90 | – | – | – | – | – | – | – | –
7 | [O-][S+]1CCCCn2nc(NC3CCCc4ccccc43)nc21 (stereo not shown) [Example I-249] | – | 100 | 100 | – | 100 | – | 100 | 100 | 100 | 100 | 100 | 100 | – | – | – | – | – | – | 80 | 80
